Experimental data published in US8975398B2, “NAMPT inhibitors” (AbbVie Inc., priority 2012, dated 2015).

System: PC3 cells
Test: NAMPT Cell Proliferation Assay (Cell Titer Glo; also performed in the presence of 0.3 mM nicotinamide mononucleotide)
Format: cell-based
Conditions: 5 days incubation, cell viability by Cell Titer Glo
In short: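 Cell Titer Glo viability after 5-day exposure (37° C, 5% CO2); PC3, 500 cells/well, RPMI + 10% heat-inactivated FBS, overnight attachment before dosing. Dose range 10 μM to 1×10^−5 μM, 10-fold steps. IC50 = sigmoidal fit of % inhibition.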

Row | SMILES | IC50 [nM]
1 | Cc1ccccc1C(=O)N1CC(c2ccc(NC(=O)[C@H]3CCN(c4cccnn4)C3)cc2)C1 [Example 791] | 7.48

Same assay, conditions: Homo sapiens, PC-3, 120 h, 5 days incubation, cell viability by Cell Titer Glo

Row | SMILES | IC50 [nM]
2 | O=C(Nc1ccc(CC2CCN(C(=O)C3CC3)CC2)cc1)C1CN(c2cccnn2)C1 [Example 967, N-(4-{[1-(cyclopropylcarbonyl)piperidin-4-yl]methyl}phenyl)-1-(pyridazin-3-yl)azetidine-3-carboxamide] | 3.05
3 | O=C(Nc1ccc(CC2CCN(C(=O)c3ccccc3F)CC2)cc1)C1CN(c2cccnn2)C1 [Example 896, N-(4-{[1-(2-fluorobenzoyl)piperidin-4-yl]methyl}phenyl)-1-(pyridazin-3-yl)azetidine-3-carboxamide] | 1.09
4 | CCC(=O)N1CCC(Cc2ccc(NC(=O)C3CN(c4cccnn4)C3)cc2)CC1 [Example 958, N-{4-[(1-propanoylpiperidin-4-yl)methyl]phenyl}-1-(pyridazin-3-yl)azetidine-3-carboxamide] | 2.63
5 | O=C(Nc1ccc(C2CCN(C(=O)CC(F)(F)F)CC2)c(F)c1)C1CN(c2cccnn2)C1 [Example 881, N-{3-fluoro-4-[1-(3,3,3-trifluoropropanoyl)piperidin-4-yl]phenyl}-1-(pyridazin-3-yl)azetidine-3-carboxamide] | 8.18
6 | O=C(N[C@H]1CCN(c2cccnn2)C1)c1ccc(C2CCN(C(=O)CC(F)(F)F)CC2)s1 [Example 1017, N-[(3S)-1-(pyridazin-3-yl)pyrrolidin-3-yl]-5-[1-(3,3,3-trifluoropropanoyl)piperidin-4-yl]thiophene-2-carboxamide] | 752
7 | CN(C)CCc1ccc(NC(=O)c2ccc(NC(=O)C3CN(c4cccnn4)C3)cc2)cc1 [Example 1021, N-[4-({4-[2-(dimethylamino)ethyl]phenyl}carbamoyl)phenyl]-1-(pyridazin-3-yl)azetidine-3-carboxamide] | 47.7
8 | CN1CCC(NC(=O)c2ccc(NC(=O)C3CN(c4cccnn4)C3)cc2)CC1 [Example 986, N-{4-[(1-methylpiperidin-4-yl)carbamoyl]phenyl}-1-(pyridazin-3-yl)azetidine-3-carboxamide] | 7470
9 | COCCNC(=O)c1ccc(NC(=O)C2CN(c3cccnn3)C2)cc1 [Example 1023, N-{4-[(2-methoxyethyl)carbamoyl]phenyl}-1-(pyridazin-3-yl)azetidine-3-carboxamide] | 508
10 | O=C(N[C@H]1CCOC1)c1ccc(NC(=O)C2CN(c3cccnn3)C2)cc1 [Example 1020, 1-(pyridazin-3-yl)-N-{4-[(3S)-tetrahydrofuran-3-ylcarbamoyl]phenyl}azetidine-3-carboxamide] | 7270
11 | CC(C)(C)Cn1cc(-c2ccc(NC(=O)C3CN(c4cccnn4)C3)cn2)cn1 [Example 924, N-{6-[1-(2,2-dimethylpropyl)-1H-pyrazol-4-yl]pyridin-3-yl}-1-(pyridazin-3-yl)azetidine-3-carboxamide] | 1.17
12 | Cc1ccc(N2CC(C(=O)Nc3ccc(C4CCN(C(=O)c5ccccc5)CC4)cc3)C2)cn1 [Example 876, N-[4-(1-benzoylpiperidin-4-yl)phenyl]-1-(6-methylpyridin-3-yl)azetidine-3-carboxamide] | 29.2
13 | CC(C)(C)CC(=O)N1CCC(Cc2ccc(NC(=O)C3CN(c4cccnn4)C3)cc2)CC1 [Example 898, N-(4-{[1-(3,3-dimethylbutanoyl)piperidin-4-yl]methyl}phenyl)-1-(pyridazin-3-yl)azetidine-3-carboxamide] | 0.851
14 | O=C(NC1CCC1)c1ccc(NC(=O)C2CN(c3cccnn3)C2)cc1 [Example 992, N-[4-(cyclobutylcarbamoyl)phenyl]-1-(pyridazin-3-yl)azetidine-3-carboxamide] | 1510
15 | CCC(C)(C)C(=O)N1CCC(c2ccc(C(=O)N[C@H]3CCN(c4cccnn4)C3)s2)CC1 [Example 1015, 5-[1-(2,2-dimethylbutanoyl)piperidin-4-yl]-N-[(3S)-1-(pyridazin-3-yl)pyrrolidin-3-yl]thiophene-2-carboxamide] | 90.1
16 | CCC(CC)C(=O)N1CCC(Cc2ccc(NC(=O)C3CN(c4cccnn4)C3)cc2)CC1 [Example 899, N-(4-{[1-(2-ethylbutanoyl)piperidin-4-yl]methyl}phenyl)-1-(pyridazin-3-yl)azetidine-3-carboxamide] | 0.401
17 | CN(CCNC(=O)c1ccc(NC(=O)C2CN(c3cccnn3)C2)cc1)c1ccccc1 [Example 982, N-[4-({2-[methyl(phenyl)amino]ethyl}carbamoyl)phenyl]-1-(pyridazin-3-yl)azetidine-3-carboxamide] | 83.5
18 | O=C(NCC1COC1)c1ccc(NC(=O)C2CN(c3cccnn3)C2)cc1 [Example 990, N-{4-[(oxetan-3-ylmethyl)carbamoyl]phenyl}-1-(pyridazin-3-yl)azetidine-3-carboxamide] | 6810
19 | O=C(NC[C@H]1CCCO1)c1ccc(NC(=O)C2CN(c3cccnn3)C2)cc1 [Example 996, 1-(pyridazin-3-yl)-N-(4-{[(2R)-tetrahydrofuran-2-ylmethyl]carbamoyl}phenyl)azetidine-3-carboxamide] | 104

Row | SMILES | IC50 [nM]
20 | O=C(Nc1ccc(CC2CCN(C(=O)c3ccccn3)CC2)cc1)C1CN(c2cccnn2)C1 [Example 954, 1-(pyridazin-3-yl)-N-(4-{[1-(pyridin-2-ylcarbonyl)piperidin-4-yl]methyl}phenyl)azetidine-3-carboxamide] | 6.38
21 | Cc1nnccc1N1CC(C(=O)Nc2ccc(C3CCN(C(=O)c4ccccc4)CC3)cc2)C1 [Example 908, N-[4-(1-benzoylpiperidin-4-yl)phenyl]-1-(3-methylpyridazin-4-yl)azetidine-3-carboxamide] | 92.5
22 | O=C(Nc1ccc(CC2CCN(C(=O)c3ccoc3)CC2)cc1)C1CN(c2cccnn2)C1 [Example 955, N-(4-{[1-(furan-3-ylcarbonyl)piperidin-4-yl]methyl}phenyl)-1-(pyridazin-3-yl)azetidine-3-carboxamide] | 5.97
23 | O=C(Nc1cnn(C2CCN(C(=O)c3ccccc3F)CC2)c1)C1CN(c2cccnn2)C1 [Example 971, N-{1-[1-(2-fluorobenzoyl)piperidin-4-yl]-1H-pyrazol-4-yl}-1-(pyridazin-3-yl)azetidine-3-carboxamide] | 70.8
24 | O=C(Nc1ccc(C2CCN(C(=O)CCC(F)(F)F)CC2)nc1)C1CN(c2cccnn2)C1 [Example 919, 1-(pyridazin-3-yl)-N-{6-[1-(4,4,4-trifluorobutanoyl)piperidin-4-yl]pyridin-3-yl}azetidine-3-carboxamide] | 51.9
25 | CCCCC(=O)N1CCC(Cc2ccc(NC(=O)C3CN(c4cccnn4)C3)cc2)CC1 [Example 961, N-{4-[(1-pentanoylpiperidin-4-yl)methyl]phenyl}-1-(pyridazin-3-yl)azetidine-3-carboxamide] | 5.57
26 | O=C(NCC1CCOCC1)c1ccc(NC(=O)C2CN(c3cccnn3)C2)cc1 [Example 1001, 1-(pyridazin-3-yl)-N-{4-[(tetrahydro-2H-pyran-4-ylmethyl)carbamoyl]phenyl}azetidine-3-carboxamide] | 53.2
27 | O=C(NCCC1CC1)c1ccc(NC(=O)C2CN(c3cccnn3)C2)cc1 [Example 975, N-{4-[(2-cyclopropylethyl)carbamoyl]phenyl}-1-(pyridazin-3-yl)azetidine-3-carboxamide] | 98
28 | O=C(Nc1ccc(CC2CCN(C(=O)c3ccno3)CC2)cc1)C1CN(c2cccnn2)C1 [Example 953, N-(4-{[1-(1,2-oxazol-5-ylcarbonyl)piperidin-4-yl]methyl}phenyl)-1-(pyridazin-3-yl)azetidine-3-carboxamide] | 3.34
29 | CC(C)(C)C(=O)N1CCC(Cc2ccc(NC(=O)C3CN(c4cccnn4)C3)cc2)CC1 [Example 897, N-(4-{[1-(2,2-dimethylpropanoyl)piperidin-4-yl]methyl}phenyl)-1-(pyridazin-3-yl)azetidine-3-carboxamide] | 1.56
30 | O=C(Nc1ccc(CC2CCN(C(=O)c3cscn3)CC2)cc1)C1CN(c2cccnn2)C1 [Example 937, 1-(pyridazin-3-yl)-N-(4-{[1-(1,3-thiazol-4-ylcarbonyl)piperidin-4-yl]methyl}phenyl)azetidine-3-carboxamide] | 2.62
31 | O=C(Nc1ccc(C2CCN(C(=O)CCC(F)(F)F)CC2)c(F)c1)C1CN(c2cccnn2)C1 [Example 883, N-{3-fluoro-4-[1-(4,4,4-trifluorobutanoyl)piperidin-4-yl]phenyl}-1-(pyridazin-3-yl)azetidine-3-carboxamide] | 30.9
32 | Cc1ccnnc1N1CC[C@H](C(=O)Nc2ccc(C3CCN(C(=O)C(C)(C)C)CC3)cc2)C1 [Example 922, (3S)—N-{4-[1-(2,2-dimethylpropanoyl)piperidin-4-yl]phenyl}-1-(4-methylpyridazin-3-yl)pyrrolidine-3-carboxamide] | 3.38
33 | O=C(NC1CN2CCC1CC2)c1ccc(NC(=O)C2CN(c3cccnn3)C2)cc1 (stereo not drawn) [Example 988, N-[4-(1-azabicyclo[2.2.2]oct-3-ylcarbamoyl)phenyl]-1-(pyridazin-3-yl)azetidine-3-carboxamide] | 1240
34 | CC(C)(C)CC(=O)N1CCC(c2ccc(NC(=O)C3CN(c4cccnn4)C3)cc2F)CC1 [Example 882, N-{4-[1-(3,3-dimethylbutanoyl)piperidin-4-yl]-3-fluorophenyl}-1-(pyridazin-3-yl)azetidine-3-carboxamide] | 6.43
35 | O=C(Nc1ccc(CC2CCN(C(=O)c3ccn[nH]3)CC2)cc1)C1CN(c2cccnn2)C1 [Example 938, N-(4-{[1-(1H-pyrazol-5-ylcarbonyl)piperidin-4-yl]methyl}phenyl)-1-(pyridazin-3-yl)azetidine-3-carboxamide] | 8.75
36 | Cc1ccc(N2CC[C@H](C(=O)Nc3ccc(C4CCN(C(=O)C(C)(C)C)CC4)cc3)C2)nn1 [Example 894, (3S)—N-{4-[1-(2,2-dimethylpropanoyl)piperidin-4-yl]phenyl}-1-(6-methylpyridazin-3-yl)pyrrolidine-3-carboxamide] | 752
